Experimental data reported in PubChem BioAssay AID248 (DTP/NCI, 2004).
Values joined by “and” are separate entries in the source; they are usually repeats but may differ in a detail not shown here. Equal entries are not always repeated. Inconclusive results and toxic doses are left out.

Tested on: L1210 leukemia ip in BDF1 mice, survival T/C
Assay: NCI In Vivo Anticancer Drug Screen. Data for tumor model L1210 Leukemia (intraperitoneal) in B6D2F1 (BDF1) mice
Settings: endpoint: mean survival time, higher = longer survival
In short: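 Ratio derived from survival: compound-dosed mice over vehicle-dosed mice, all bearing a transplantable tumor.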

[1] = dose: 50.0 mg/kg/injection, schedule: Q04DX003 (ip), vehicle: saline with Tween-80
[2] = dose: 100.0 mg/kg/injection, schedule: Q04DX002 (ip), vehicle: saline
[3] = dose: 100.0 mg/kg/injection, schedule: Q01DX009 (ip), vehicle: saline with Tween-80
[4] = dose: 100.0 mg/kg/injection, schedule: Q04DX003 (ip), vehicle: saline with Tween-80
[5] = dose: 200.0 mg/kg/injection, schedule: Q01DX009 (ip), vehicle: saline with Tween-80
[6] = dose: 200.0 mg/kg/injection, schedule: Q04DX003 (ip), vehicle: saline with Tween-80
[7] = dose: 400.0 mg/kg/injection, schedule: Q01DX009 (ip), vehicle: saline with Tween-80
[8] = dose: 400.0 mg/kg/injection, schedule: Q04DX003 (ip), vehicle: saline with Tween-80
[9] = dose: 100.0 mg/kg/injection, schedule: Q01DX001 (ip), vehicle: saline
[10] = dose: 200.0 mg/kg/injection, schedule: Q01DX001 (ip), vehicle: saline
[11] = dose: 400.0 mg/kg/injection, schedule: Q01DX001 (ip), vehicle: saline
[12] = dose: 100.0 mg/kg/injection, schedule: Q04DX002 (ip), vehicle: Klucel (hydroxypropylcellulose) (HPC)
[13] = dose: 200.0 mg/kg/injection, schedule: Q04DX002 (ip), vehicle: Klucel (hydroxypropylcellulose) (HPC)
[14] = dose: 400.0 mg/kg/injection, schedule: Q04DX002 (ip), vehicle: Klucel (hydroxypropylcellulose) (HPC)

With `NCc1ccc(NC(=O)c2ccc(C(=O)Nc3ccc(CN)cc3)cc2)cc1` the T/C (dose: 15.0 mg/kg/injection, schedule: Q01DX Z (ip), vehicle: water) was 97 % of control, the T/C (dose: 20.0 mg/kg/injection, schedule: Q01DX Z (ip), vehicle: water) was 102 % of control and the T/C (dose: 30.0 mg/kg/injection, schedule: Q01DX Z (ip), vehicle: water) was 96 % of control. For the same molecule, the T/C (dose: 40.0 mg/kg/injection, schedule: Q01DX Z (ip), vehicle: water) was 102 % of control.

With `Cn1c(N)c(N=Cc2ccc(C=Nc3c(N)n(C)c(=O)n(C)c3=O)cc2)c(=O)n(C)c1=O` the T/C (dose: 50.0 mg/kg/injection, schedule: Q01DX001 (ip), vehicle: carboxymethylcellulose (CMC)) was 88 % of control, the T/C (dose: 200.0 mg/kg/injection, schedule: Q01DX001 (ip), vehicle: carboxymethylcellulose (CMC)) was 96 % of control and the T/C (dose: 400.0 mg/kg/injection, schedule: Q01DX001 (ip), vehicle: carboxymethylcellulose (CMC)) was 90 % of control.

For `Cc1ccc(CNc2ccccc2)cc1`, the T/C (dose: 12.5 mg/kg/injection, schedule: Q04DX003 (ip), vehicle: saline with Tween-80) was 95 % of control, the T/C (dose: 25.0 mg/kg/injection, schedule: Q04DX003 (ip), vehicle: saline with Tween-80) was 95 % of control and the T/C [1] was 97 % of control. For the same molecule, the T/C (dose: 100.0 mg/kg/injection, schedule: Q01DX009 (ip), vehicle: other) was 112 % of control, the T/C (dose: 200.0 mg/kg/injection, schedule: Q01DX009 (ip), vehicle: other) was 93 % of control and the T/C (dose: 400.0 mg/kg/injection, schedule: Q01DX009 (ip), vehicle: other) was 93 % of control.

In the case of `COCC(O)C(OC)C(OC)C(C=O)NC(=O)N(CCCl)N=O` (stereo unspecified), the T/C (dose: 14.0 mg/kg/injection, schedule: Q01DX001 (ip), vehicle: saline with Tween-80) is reported as 159 % of control, the T/C (dose: 22.0 mg/kg/injection, schedule: Q01DX001 (ip), vehicle: saline with Tween-80) is reported as 181 % of control and the T/C (dose: 33.5 mg/kg/injection, schedule: Q01DX001 (ip), vehicle: saline with Tween-80) is reported as 331 % of control. The T/C (dose: 50.0 mg/kg/injection, schedule: Q01DX001 (ip), vehicle: saline with Tween-80) was 431 % of control, the T/C (dose: 75.0 mg/kg/injection, schedule: Q01DX001 (ip), vehicle: saline with Tween-80) was 489 % of control and the T/C (dose: 112.0 mg/kg/injection, schedule: Q01DX001 (ip), vehicle: saline with Tween-80) was 227 % of control.

In the case of `CN(C)CCCN=C(N)CCl`, the T/C (dose: 12.5 mg/kg/injection, schedule: Q04DX002 (ip), vehicle: saline) is reported as 101 % of control, the T/C (dose: 25.0 mg/kg/injection, schedule: Q04DX002 (ip), vehicle: saline) is reported as 108 % of control and the T/C (dose: 50.0 mg/kg/injection, schedule: Q04DX002 (ip), vehicle: saline) is reported as 87 % of control. For the same molecule, the T/C [2] was 97 % of control.

With `Cc1ccc(C(=O)c2ccccc2C(=O)O)cc1N` the T/C [3] was 105 % of control, the T/C [4] was 99 % of control and the T/C [5] was 97 % of control. The T/C [6] was 99 % of control, the T/C [7] was 106 % of control and the T/C [8] was 97 % of control.

In the case of `CC(C)(C)c1ccc(SC(=O)NCCCl)cc1`, the T/C (dose: 20.0 mg/kg/injection, schedule: Q04DX003 (ip), vehicle: Klucel (hydroxypropylcellulose) (HPC)) is reported as 97 % of control, the T/C (dose: 40.0 mg/kg/injection, schedule: Q04DX003 (ip), vehicle: Klucel (hydroxypropylcellulose) (HPC)) is reported as 98 % of control and the T/C (dose: 80.0 mg/kg/injection, schedule: Q04DX003 (ip), vehicle: Klucel (hydroxypropylcellulose) (HPC)) is reported as 90 % of control. For the same molecule, the T/C (dose: 100.0 mg/kg/injection, schedule: Q04DX003 (ip), vehicle: Klucel (hydroxypropylcellulose) (HPC)) was 106 % of control and the T/C (dose: 200.0 mg/kg/injection, schedule: Q04DX003 (ip), vehicle: Klucel (hydroxypropylcellulose) (HPC)) was 91 % of control.

`CCOC(OCC)C(C)(C)OC=O` was tested, and the T/C [9] was 103 % of control, the T/C [10] was 103 % of control and the T/C [11] was 103 % of control.

In the case of `CN(C)C(=O)c1cccc(NC(=O)Oc2ccccc2)c1`, the T/C [3] is reported as 109 % of control, the T/C [4] is reported as 102 % of control and the T/C [5] is reported as 101 % of control. The T/C [6] was 100 % of control, the T/C [7] was 101 % of control and the T/C [8] was 102 % of control.

In the case of `COC(=O)C1OC1c1ccccc1OC` (stereo unspecified), the T/C [9] is reported as 105 % of control, the T/C [10] is reported as 102 % of control and the T/C [11] is reported as 109 % of control.

In the case of `CCC#CC(=O)OCC`, the T/C [2] is reported as 108 % of control, the T/C (dose: 200.0 mg/kg/injection, schedule: Q04DX002 (ip), vehicle: saline) is reported as 97 % of control and the T/C (dose: 400.0 mg/kg/injection, schedule: Q04DX002 (ip), vehicle: saline) is reported as 105 % of control.

In the case of `O=C(NCCBr)Nc1ccc([N+](=O)[O-])cc1`, the T/C (dose: 50.0 mg/kg/injection, schedule: Q01DX009 (ip), vehicle: saline with Tween-80) is reported as 90 % of control and the T/C [3] is reported as 87 % of control.

For `CC(=O)Oc1cc(OC(C)=O)c(Oc2cc(OC(C)=O)c(Oc3cc(OC(C)=O)c(OC(C)=O)c(OC(C)=O)c3)c(OC(C)=O)c2)c(OC(C)=O)c1`, the T/C [1] was 97 % of control, the T/C [4] was 95 % of control and the T/C [6] was 95 % of control.

For `CCc1ccccc1OC(=O)Nc1ccccc1C`, the T/C [12] was 95 % of control, the T/C [13] was 100 % of control and the T/C [14] was 95 % of control.

In the case of `NC(N)=N/N=C/NN/C=N/N=C(N)N`, the T/C (dose: 15.0 mg/kg/injection, schedule: Q01DX Z (ip), vehicle: saline) is reported as 93 % of control, the T/C (dose: 30.0 mg/kg/injection, schedule: Q01DX Z (ip), vehicle: saline) is reported as 104 % of control and the T/C (dose: 60.0 mg/kg/injection, schedule: Q01DX Z (ip), vehicle: saline) is reported as 115 % of control. For the same molecule, the T/C (dose: 120.0 mg/kg/injection, schedule: Q01DX Z (oral), vehicle: saline) was 95 % of control.

With `NNc1ccc(S(=O)(=O)C(F)(F)C(F)Cl)cc1` (stereo unspecified) the T/C (dose: 100.0 mg/kg/injection, schedule: Q01DX009 (ip), vehicle: gum acacia) was 105 % of control, the T/C (dose: 100.0 mg/kg/injection, schedule: Q04DX003 (ip), vehicle: gum acacia) was 101 % of control and the T/C (dose: 200.0 mg/kg/injection, schedule: Q01DX009 (ip), vehicle: gum acacia) was 100 % of control. The T/C (dose: 200.0 mg/kg/injection, schedule: Q04DX003 (ip), vehicle: gum acacia) was 96 % of control and the T/C (dose: 400.0 mg/kg/injection, schedule: Q04DX003 (ip), vehicle: gum acacia) was 96 % of control.

In the case of `CCCCCCCCCCCC(=O)Nc1ccc2ccccc2c1`, the T/C [3] is reported as 93 % of control and 97 % of control, the T/C (dose: 100.0 mg/kg/injection, schedule: Q04DX002 (ip), vehicle: saline with Tween-80) is reported as 105 % of control and 107 % of control and the T/C [4] is reported as 105 % of control. The T/C [5] was 107 % of control and 88 % of control, the T/C (dose: 200.0 mg/kg/injection, schedule: Q04DX002 (ip), vehicle: saline with Tween-80) was 93 % of control and 89 % of control and the T/C [6] was 94 % of control. For the same molecule, the T/C [7] was 96 % of control and 90 % of control, the T/C (dose: 400.0 mg/kg/injection, schedule: Q04DX002 (ip), vehicle: saline with Tween-80) was 94 % of control and 117 % of control and the T/C [8] was 95 % of control.

With `CN1c2ccccc2C(C)(C)C12C=Cc1ccccc1O2` (stereo unspecified) the T/C (dose: 25.0 mg/kg/injection, schedule: Q04DX002 (ip), vehicle: gum acacia) was 111 % of control, the T/C (dose: 50.0 mg/kg/injection, schedule: Q04DX002 (ip), vehicle: gum acacia) was 103 % of control and the T/C (dose: 100.0 mg/kg/injection, schedule: Q04DX002 (ip), vehicle: gum acacia) was 88 % of control. For the same molecule, the T/C (dose: 200.0 mg/kg/injection, schedule: Q04DX002 (ip), vehicle: gum acacia) was 94 % of control.

For `O=C(O)CC1CCN(C(=O)c2ccccc2)C(Cc2c[nH]c3ccccc23)C1O` (stereo unspecified), the T/C [9] was 97 % of control, the T/C [10] was 101 % of control and the T/C [11] was 92 % of control.

`O=Cc1cccn1Cc1cc2c(cc1[N+](=O)[O-])OCO2` was tested, and the T/C (dose: 25.0 mg/kg/injection, schedule: Q04DX002 (ip), vehicle: Klucel (hydroxypropylcellulose) (HPC)) was 101 % of control, the T/C (dose: 50.0 mg/kg/injection, schedule: Q04DX002 (ip), vehicle: Klucel (hydroxypropylcellulose) (HPC)) was 101 % of control and the T/C [12] was 97 % of control.

In the case of `C=CCc1ccc(OC(=O)Nc2ccc(Cl)cc2)c(OC)c1`, the T/C [12] is reported as 115 % of control, the T/C [13] is reported as 107 % of control and the T/C [14] is reported as 100 % of control.

With `Nc1cc(C(=O)O)ccc1Cl` the T/C [9] was 105 % of control, the T/C [10] was 95 % of control and the T/C [11] was 95 % of control.
